Measured values published in publication PMC9501035, “Synthesis of Novel N-Methylmorpholine-Substituted Benzimidazolium Salts as Potential α-Glucosidase Inhibitors” (Molecules, 2022).
Several values for one entry are separate records, joined by “and”; a condition that tells them apart may be missing. Identical values can stand only once. Like-named read-outs stand apart in the source and are kept apart here.

Columns and labels:
[1] = molecular target: α-glucosidase; conditions: cited from earlier work
[2] = molecular target: α-glucosidase; assay: In vitro α-glucosidase inhibition (spectroscopic method); format: biochemical; conditions: means of experiments, n = 3
Protocol: α-Glucosidase inhibitions were determined following a modified spectroscopic method. The detailed protocol was already reported. Each experiment was carried out thrice, and percentage inhibitions were determined with the help of the following expression, followed by the determination of IC50 values:% Inhibition = [(Acontrol − Asample)/Acontrol] × 100 where ‘A’ stands for absorbance.

[3] = structural hybrids with piperazine and morpholine

Row | IC50 [2] | SMILES | also measured
1 |  | O=C(c1ccccc1)c1ccc2nc(-c3ccc(O)cc3)[nH]c2c1 [II] | IC50 ([1]; benzoylarylbenzimidazoles): 11.02 ± 0.04 µM
2 | 88 ± 0.08 µM | Cc1ccc(NC(=O)C[n+]2c(CN3CCOCC3)n(Cc3ccccc3)c3ccccc32)cc1 [Compound 5j, 1-Benzyl-3-(2-((4-methylphenyl)amino)-2-oxoethyl)-2-(morpholinomethyl)-1H-benzo[d]imidazol-3-ium chloride] | 
3 | 26 µM and 25 µM | COc1ccccc1NC(=O)C[n+]1c(CN2CCOCC2)n(Cc2ccccc2)c2ccccc21 [Compound 5k, 1-Benzyl-3-(2-((2-methoxyphenyl)amino)-2-oxoethyl)-2-(morpholinomethyl)-1H-benzo[d]imidazol-3-ium chloride] | 
4 | 47 ± 0.05 µM | Cc1cccc(NC(=O)C[n+]2c(CN3CCOCC3)n(Cc3ccccc3)c3ccccc32)c1 [Compound 5i, 1-Benzyl-3-(2-((3-methylphenyl)amino)-2-oxoethyl)-2-(morpholinomethyl)-1H-benzo[d]imidazol-3-ium chloride] | 
5 | 25 ± 0.106 µM | O=C(C[n+]1c(CN2CCOCC2)n(Cc2ccccc2)c2ccccc21)Nc1ccc([N+](=O)[O-])cc1 [Compound 5g, 1-Benzyl-3-(2-((4-nitrophenyl)amino)-2-oxoethyl)-2-(morpholinomethyl)-1H-benzo[d]imidazol-3-ium chloride] | 
6 |  | Oc1ccc(-c2nc3cc(N4CCOCC4)ccc3[nH]2)cc1 [IV X=O] | IC50 [1, 3]: 3.4 ± 0.86 µM
7 | 15 ± 0.03 µM | O=C(C[n+]1c(CN2CCOCC2)n(Cc2ccccc2)c2ccccc21)Nc1ccc(Br)cc1 [Compound 5d, 1-Benzyl-3-(2-((4-bromophenyl)amino)-2-oxoethyl)-2-(morpholinomethyl)-1H-benzo[d]imidazol-3-ium chloride] | 
8 | 35 ± 0.02 µM | O=C(C[n+]1c(CN2CCOCC2)n(Cc2ccccc2)c2ccccc21)Nc1ccc(Cl)cc1 [Compound 5b, 1-Benzyl-3-(2-((4-chlorophenyl)amino)-2-oxoethyl)-2-(morpholinomethyl)-1H-benzo[d]imidazol-3-ium chloride] | 
9 | 30 ± 0.11 µM | O=C(C[n+]1c(CN2CCOCC2)n(Cc2ccccc2)c2ccccc21)Nc1ccccc1[N+](=O)[O-] [Compound 5e, 1-Benzyl-3-(2-((2-nitrophenyl)amino)-2-oxoethyl)-2-(morpholinomethyl)-1H-benzo[d]imidazol-3-ium chloride] | 
10 | 110 ± 0.113 µM | O=C(C[n+]1c(CN2CCOCC2)n(Cc2ccccc2)c2ccccc21)Nc1ccccc1 [Compound 5m, 1-Benzyl-2-(morpholinomethyl)-3-(2-oxo-2-(phenylamino)ethyl)-1H-benzo[d]imidazol-3-ium chloride] | 
11 | 21 ± 0.076 µM | Cc1ccccc1NC(=O)C[n+]1c(CN2CCOCC2)n(Cc2ccccc2)c2ccccc21 [Compound 5h, 1-Benzyl-3-(2-((2-methylphenyl)amino)-2-oxoethyl)-2-(morpholinomethyl)-1H-benzo[d]imidazol-3-ium chloride] | 
12 | 55 ± 0.14 µM | O=C(C[n+]1c(CN2CCOCC2)n(Cc2ccccc2)c2ccccc21)Nc1ccccc1Br [Compound 5c, 1-Benzyl-3-(2-((2-bromophenyl)amino)-2-oxoethyl)-2-(morpholinomethyl)-1H-benzo[d]imidazol-3-ium chloride] | 
13 | 19 ± 0.06 µM | O=C(C[n+]1c(CN2CCOCC2)n(Cc2ccccc2)c2ccccc21)Nc1cccc([N+](=O)[O-])c1 [Compound 5f, 1-Benzyl-3-(2-((3-nitrophenyl)amino)-2-oxoethyl)-2-(morpholinomethyl)-1H-benzo[d]imidazol-3-ium chloride] | 
14 |  | CN1CCN(c2ccc3[nH]c(-c4ccc(O)cc4)nc3c2)CC1 [IV X=NMe] | IC50 [1, 3]: 2.25 ± 0.28 µM
15 | 50 ± 0.04 µM | O=C(C[n+]1c(CN2CCOCC2)n(Cc2ccccc2)c2ccccc21)Nc1ccccc1Cl [Compound 5a, 1-Benzyl-3-(2-((2-chlorophenyl)amino)-2-oxoethyl)-2-(morpholinomethyl)-1H-benzo[d]imidazol-3-ium chloride] | 
16 |  | COc1ccc(/C(CSc2nc3ccccc3[nH]2)=N\N=C\c2ccc(OC)cc2O)cc1 [I] | IC50 ([1]; benzimidazole-bearing Schiff bases): 2.2 ± 0.1 µM
17 | 65 ± 0.015 µM | COc1ccc(NC(=O)C[n+]2c(CN3CCOCC3)n(Cc3ccccc3)c3ccccc32)cc1 [Compound 5l, 1-Benzyl-3-(2-((4-methoxyphenyl)amino)-2-oxoethyl)-2-(morpholinomethyl)-1H-benzo[d]imidazol-3-ium chloride] | 
